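Tested at 5 concentrations; 48 h exposure; 96-well plates; endpoints linearly interpolated, else capped at highest concentration. The concentration for full growth arrest is given as TGI.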
How the values were obtained:
Experiment in all cases: growth of human tumour cells (NCI), 48 h
[1] = tested on: 786-0 renal
[2] = tested on: CAKI-1 renal
[3] = tested on: HCC-2998 colon
[4] = tested on: HOP-62 NSCLC
[5] = tested on: HS 578T breast
[6] = tested on: HT29 colon
[7] = tested on: MDA-N
[8] = tested on: NCI-H522 lung
[9] = tested on: OVCAR-3 ovarian
[10] = tested on: OVCAR-4 ovarian
[11] = tested on: PC-3 prostate
[12] = tested on: U251 CNS
[13] = tested on: DMS 114 small cell lung
[14] = tested on: DMS 273 small cell lung
[15] = tested on: KM20L2 colon
[16] = tested on: LXFL 529 NSCLC
[17] = tested on: HOP-18 NSCLC

SMILES | TGI [1] [µM] | TGI [2] [µM] | TGI [3] [µM] | TGI [4] [µM] | TGI [5] [µM] | TGI [6] [µM] | TGI [7] [µM] | TGI [8] [µM] | TGI [9] [µM] | TGI [10] [µM] | TGI [11] [µM] | TGI [12] [µM] | TGI [13] [µM] | TGI [14] [µM] | TGI [15] [µM] | TGI [16] [µM] | TGI [17] [µM]
O=C1Nc2nccnc2C(=O)N2CCC[C@@H]12 | > 100 | > 100 | > 100 | > 100 | > 100 | > 100 | > 100 | > 100 | > 100 | > 100 | > 100 | > 100 | – | – | – | – | –
CCCSc1ccc2[nH]c(N3C(=O)/C(=C/c4ccc(SC)cc4)N=C3c3ccccc3)cc2c1 | > 50 | > 50 | > 50 | > 50 | > 50 | > 50 | 17.5 | > 50 | > 50 | > 50 | > 50 | > 50 | – | – | – | – | –
CC(C)(Cl)C(Br)CCC(Br)(CCl)C(Cl)CBr (stereo not drawn) | > 10 | > 10 | > 10 | > 10 | > 10 | > 10 | > 10 | > 10 | > 10 | > 10 | > 10 | > 10 | – | – | – | – | –
CCC(C)[C@@H](Nc1c(O)c2c(c(O)c1Cl)C(=O)C=CC2=O)C(=O)OC (stereo partly drawn) | > 10 | > 10 | > 10 | > 10 | > 10 | > 10 | > 10 | 4.92 | 9.1 | 8.12 | > 10 | 8.83 | – | – | – | – | –
CC(=O)c1ccc2c(c1)CC1(C2)Cc2cc3c(c(C(=O)O)c2C1)CCC3 (stereo not drawn) | > 100 | > 100 | > 100 | > 100 | > 100 | > 100 | > 100 | > 100 | > 100 | > 100 | > 100 | > 100 | – | – | – | – | –
CC1=C(O)c2ccccc2C(=O)C1=O | > 100 | > 100 | > 100 | > 100 | > 100 | > 100 | > 100 | > 100 | > 100 | > 100 | > 100 | > 90.9 | – | – | – | – | –
O=C(c1ccc(Cl)cc1)c1ccc(OCCCOc2ccc(C(=O)c3ccc(Cl)cc3)cc2Cl)c(Cl)c1 | > 100 | > 100 | > 100 | > 100 | – | > 100 | – | > 100 | > 100 | > 100 | – | > 100 | > 100 | > 100 | > 100 | > 100 | –
CC(C)C(OC(=O)c1ccc(NCC2=CC(=O)C=CC2=O)cc1)C(C)C | 22.8 | 3.02 | 27.9 | 48.3 | 16.7 | 26.3 | 21.5 | 2.85 | 23.4 | 11.4 | 29.9 | 13.5 | – | – | – | – | –
O=C1CCc2ccc(O)c(c2)Oc2ccc(cc2)C(Sc2ccccc2)CCO1 (stereo not drawn) | 29.6 | 41.1 | 32.9 | 30.9 | 36.2 | 30.1 | 34.8 | 27.7 | 29.6 | 26.1 | 35.1 | 33 | – | – | – | – | –
O=C(NNC(=S)NC1CCCCC1)C12CC3CC(CC(C3)C1)C2 | > 100 | > 100 | > 100 | > 100 | > 100 | > 100 | > 100 | > 100 | > 100 | > 100 | > 100 | > 100 | – | – | – | – | –
CC(C)=CCCC(C)CCOS(=O)C(F)(F)F (stereo not drawn) | > 100 | > 100 | 27.5 | > 100 | 5.31 | 28.5 | 14 | 5.12 | 27.8 | 20.5 | 45.3 | 22.9 | – | – | – | – | –
Nc1nc(NCCCO)cc(=O)[nH]1 | > 100 | > 100 | > 100 | > 100 | > 100 | > 100 | > 100 | > 100 | > 100 | > 100 | > 100 | > 100 | – | – | – | – | –
C=CCOC(=O)C1=C(C)NC2=N[C@H](CCCCCCCCC)C[C@@H]3CCC1N23 (stereo partly drawn) | 39.3 | > 100 | 48.4 | 79 | 54.4 | 72.2 | 38.4 | 34.7 | 37.5 | 45.9 | 42.1 | 40.5 | – | – | – | – | –
O=[N+]([O-])c1ccc(-n2nc3ccc4c(no[n+]4[O-])c3n2)cc1 | > 100 | > 100 | > 100 | > 100 | > 100 | > 100 | > 100 | > 100 | > 100 | > 100 | > 100 | > 100 | – | – | – | – | –
S=c1ncc2c([nH]1)C1c3ccccc3C2c2ccccc21 | > 100 | – | – | > 100 | – | – | – | > 100 | > 100 | > 100 | – | > 100 | > 100 | > 100 | > 100 | > 100 | –
COc1nc(N)c(NC(C)=O)c(=O)n1C | – | > 100 | > 100 | – | – | > 100 | – | – | – | > 100 | – | > 100 | > 100 | > 100 | > 100 | > 100 | > 100
COC(=O)c1cc(NC(=O)Cc2c[nH]c3ccccc23)cn1C | > 100 | > 100 | > 100 | > 100 | > 100 | > 100 | > 100 | > 100 | > 100 | > 100 | > 100 | > 100 | – | – | – | – | –
COc1ccc2c(c1)CCCN1CCc3ccccc3C21 (stereo not drawn) | 69.9 | > 100 | > 100 | > 100 | 94 | > 100 | 52.9 | > 100 | > 100 | > 100 | > 100 | 95.4 | – | – | – | – | –

— PubChem BioAssay (NCI)
